From ChEMBL document CHEMBL1143091, “Synthesis and SAR studies of biaryloxy-substituted triazoles as antifungal agents” (2008)
Values after ≈ are worked out from the molar mass of the structure shown.

Assays:
Candida albicans = assay: Antimicrobial activity against Candida albicans ATCC 76615; assay type: functional
Candida tropicalis = assay: Antimicrobial activity against Candida tropicalis isolates; assay type: functional
Cryptococcus neoformans = assay: Antimicrobial activity against Cryptococcus neoformans ATCC 32609; assay type: functional
Aspergillus fumigatus = assay: Antimicrobial activity against Aspergillus fumigatus isolates; assay type: functional
Trichophyton rubrum = assay: Antimicrobial activity against Trichophyton rubrum isolates; assay type: functional
Nannizzia gypsea = assay: Antimicrobial activity against Microsporum gypseum isolates; assay type: functional
Fonsecaea compacta = assay: Antimicrobial activity against Fonsecaea compacta isolates; assay type: functional
Candida parapsilosis = assay: Antimicrobial activity against Candida parapsilosis isolates; conditions: Lodderomyces parapsilosis

Compound | MIC (Candida albicans) [µg/mL] | MIC (Candida tropicalis) [µg/mL] | MIC (Cryptococcus neoformans) [µg/mL] | MIC (Aspergillus fumigatus) [µg/mL] | MIC (Trichophyton rubrum) [µg/mL] | MIC (Nannizzia gypsea) [µg/mL] | MIC (Fonsecaea compacta) [µg/mL] | MIC (Candida parapsilosis) [µg/mL]
CN(Cc1ccc(-c2ccc(OCC(O)(Cn3cncn3)c3ccc(F)cc3F)cc2)cc1)c1ccccc1 (stereo unspecified) | 1 (≈ 1.9 µM) | 0.25 (≈ 0.475 µM) | 1 (≈ 1.9 µM) | > 64 | 16 (≈ 30.4 µM) | > 64 | 16 (≈ 30.4 µM) | 1 (≈ 1.9 µM)
OC(Cn1cncn1)(Cn1cncn1)c1ccc(F)cc1F [FLUCONAZOLE] | 16 (≈ 52.2 µM) | 1 (≈ 3.27 µM) | 0.25 (≈ 0.816 µM) | > 64 | 1 (≈ 3.27 µM) | 1 (≈ 3.27 µM) | 16 (≈ 52.2 µM) | 4 (≈ 13.1 µM)
C[C@@H]1[C@H](O)[C@@H](C)/C=C/C=C/C=C/C=C/C=C/C=C/C=C/[C@H](O[C@@H]2O[C@H](C)[C@@H](O)[C@H](N)[C@@H]2O)C[C@@H]2O[C@](O)(C[C@@H](O)C[C@@H](O)[C@H](O)CC[C@@H](O)C[C@@H](O)CC(=O)O[C@H]1C)C[C@H](O)[C@H]2C(=O)O [AMPHOTERICIN B] | 0.25 (≈ 0.271 µM) | 4 (≈ 4.33 µM) | 1 (≈ 1.08 µM) | 16 (≈ 17.3 µM) | 16 (≈ 17.3 µM) | 1 (≈ 1.08 µM) | 16 (≈ 17.3 µM) | 1 (≈ 1.08 µM)
O=Cc1ccc(-c2ccc(OCC(O)(Cn3cncn3)c3ccc(F)cc3F)cc2)cc1 (stereo unspecified) | 0.0625 (≈ 0.144 µM) | 0.25 (≈ 0.574 µM) | 1 (≈ 2.3 µM) | > 64 | 1 (≈ 2.3 µM) | 0.25 (≈ 0.574 µM) | 0.25 (≈ 0.574 µM) | > 64
CN(C/C=C/C#CC(C)(C)C)Cc1cccc2ccccc12 [TERBINAFINE] | 1 (≈ 3.43 µM) | 0.25 (≈ 0.858 µM) | 0.25 (≈ 0.858 µM) | 0.0625 (≈ 0.214 µM) | 0.0625 (≈ 0.214 µM) | 0.0156 (≈ 0.0535 µM) | 0.0625 (≈ 0.214 µM) | 0.25 (≈ 0.858 µM)
COc1ccc(C(=O)Nc2ccc(-c3ccc(OCC(O)(Cn4cncn4)c4ccc(F)cc4F)cc3)cn2)cc1 (stereo unspecified) | 0.0625 (≈ 0.112 µM) | 0.25 (≈ 0.448 µM) | 1 (≈ 1.79 µM) | 64 (≈ 115 µM) | 0.25 (≈ 0.448 µM) | 1 (≈ 1.79 µM) | 0.25 (≈ 0.448 µM) | 0.25 (≈ 0.448 µM)
CNCC(=O)Nc1ccc(-c2ccc(OCC(O)(Cn3cncn3)c3ccc(F)cc3F)cc2)cn1 (stereo unspecified) | 0.0625 (≈ 0.126 µM) | 0.25 (≈ 0.506 µM) | 16 (≈ 32.4 µM) | 4 (≈ 8.09 µM) | 1 (≈ 2.02 µM) | 1 (≈ 2.02 µM) | 1 (≈ 2.02 µM) | 0.25 (≈ 0.506 µM)
C[C@@H]1COC[C@H](C)N1Cc1ccc(C(=O)Nc2ccc(-c3ccc(OCC(O)(Cn4cncn4)c4ccc(F)cc4F)cc3)cn2)cc1 (stereo partly specified) | 0.0625 (≈ 0.0955 µM) | 0.0625 (≈ 0.0955 µM) | 4 (≈ 6.11 µM) | > 64 | > 64 | > 64 | 16 (≈ 24.4 µM) | 0.0625 (≈ 0.0955 µM)
Cc1cccc(C(=O)Nc2ccc(-c3ccc(OCC(O)(Cn4cncn4)c4ccc(F)cc4F)cc3)cn2)c1 (stereo unspecified) | 0.25 (≈ 0.462 µM) | 0.25 (≈ 0.462 µM) | 0.25 (≈ 0.462 µM) | 64 (≈ 118 µM) | 1 (≈ 1.85 µM) | 1 (≈ 1.85 µM) | 1 (≈ 1.85 µM) | 0.25 (≈ 0.462 µM)
OCc1ccc(-c2ccc(OCC(O)(Cn3cncn3)c3ccc(F)cc3F)cc2)cc1 (stereo unspecified) | 0.0156 (≈ 0.0357 µM) | 0.0156 (≈ 0.0357 µM) | 1 (≈ 2.29 µM) | > 64 | 1 (≈ 2.29 µM) | 1 (≈ 2.29 µM) | 16 (≈ 36.6 µM) | 0.0625 (≈ 0.143 µM)
O=C(Nc1ccc(-c2ccc(OCC(O)(Cn3cncn3)c3ccc(F)cc3F)cc2)cn1)c1ccc(CN2CCCCC2)cc1 (stereo unspecified) | 0.0625 (≈ 0.1 µM) | 0.0625 (≈ 0.1 µM) | 1 (≈ 1.6 µM) | 4 (≈ 6.4 µM) | 0.25 (≈ 0.4 µM) | 1 (≈ 1.6 µM) | 1 (≈ 1.6 µM) | 0.0625 (≈ 0.1 µM)
CCC(C)n1ncn(-c2ccc(N3CCN(c4ccc(OC[C@H]5CO[C@](Cn6cncn6)(c6ccc(Cl)cc6Cl)O5)cc4)CC3)cc2)c1=O (stereo partly specified) [ITRACONAZOLE] | 0.5 (≈ 0.709 µM) | 0.25 (≈ 0.354 µM) | 1 (≈ 1.42 µM) | 1 (≈ 1.42 µM) | 0.0156 (≈ 0.0221 µM) | 0.0625 (≈ 0.0886 µM) | 0.0625 (≈ 0.0886 µM) | 0.0312 (≈ 0.0442 µM)
Oc1ccccc1CNc1ccc(-c2ccc(OCC(O)(Cn3cncn3)c3ccc(F)cc3F)cc2)cn1 (stereo unspecified) | 0.0625 (≈ 0.118 µM) | 0.0625 (≈ 0.118 µM) | > 64 | 64 (≈ 121 µM) | 0.0625 (≈ 0.118 µM) | 0.0625 (≈ 0.118 µM) | 0.25 (≈ 0.472 µM) | 0.0625 (≈ 0.118 µM)
CCN(CC)Cc1ccc(C(=O)Nc2ccc(-c3ccc(OCC(O)(Cn4cncn4)c4ccc(F)cc4F)cc3)cn2)cc1 (stereo unspecified) | 0.0625 (≈ 0.102 µM) | 0.0625 (≈ 0.102 µM) | 4 (≈ 6.53 µM) | > 64 | 1 (≈ 1.63 µM) | 1 (≈ 1.63 µM) | 0.25 (≈ 0.408 µM) | 0.25 (≈ 0.408 µM)
CC(=O)N1CCN(c2ccc(OCC3COC(Cn4ccnc4)(c4ccc(Cl)cc4Cl)O3)cc2)CC1 (stereo unspecified) [KETOCONAZOLE] | 0.25 (≈ 0.47 µM) | 0.0625 (≈ 0.118 µM) | 0.0156 (≈ 0.0294 µM) | 1 (≈ 1.88 µM) | 0.25 (≈ 0.47 µM) | 0.25 (≈ 0.47 µM) | 0.25 (≈ 0.47 µM) | 0.0625 (≈ 0.118 µM)
CC(C)NCc1ccc(-c2ccc(OCC(O)(Cn3cncn3)c3ccc(F)cc3F)cc2)cc1 (stereo unspecified) | 1 (≈ 2.09 µM) | 0.0625 (≈ 0.131 µM) | 16 (≈ 33.4 µM) | > 64 | 0.25 (≈ 0.522 µM) | 1 (≈ 2.09 µM) | 4 (≈ 8.36 µM) | 0.0625 (≈ 0.131 µM)
CCNCc1ccc(-c2ccc(OCC(O)(Cn3cncn3)c3ccc(F)cc3F)cc2)cc1 (stereo unspecified) | 1 (≈ 2.15 µM) | 0.25 (≈ 0.538 µM) | 16 (≈ 34.4 µM) | > 64 | 0.25 (≈ 0.538 µM) | 1 (≈ 2.15 µM) | 1 (≈ 2.15 µM) | 0.25 (≈ 0.538 µM)
